Values quoted from earlier work, collected in US6515019B2, “Methods of providing symptomatic and prophylactic treatment for medical and neurological conditions” (priority 1996, dated 2003).

What was measured:
[1] = test system: neuronal cell death; settings: administered post-hoc; animal models of ischemia (Wasterlain 1993; Shuaib 1996; Wasterlain 1996)
[2] = patients on felbamate monotherapy (Faught E., Neurology 43:688-692, 1993)
[3] = add-on therapy in partial epilepsy in children (Carmant J., Pediatr 125:481-486, 1994)

NC(=O)OCC(COC(N)=O)c1ccccc1 [Felbamate, 2-phenyl-1,3-propanediol dicarbamate]
prevention of neuronal cell death [1]: effective in preventing neuronal cell death | Weight loss [2]: 4-5% | weight loss course [3]: transient and returned to normal after twenty weeks
